Source: patent EP1712550A2, “Substituted triazole diamine derivatives as kinase inhibitors” (priority 2000, dated 2002)
Read-outs that look alike come from different tables or passages of the source.

Columns and labels:
Type in all cases: biochemical
[1] = molecular target: T1, EGFR (epidermal growth factor receptor) (Homo sapiens, UniProt P00533); assay: Kinase Selectivity Assay EGF-R
T1 construct: is purified from human A431 cell membranes (Sigma, St. Louis, MO, Cat.# E3641); purchased Sigma, St. Louis, MO E3641; host or cells: human A431 cell membranes (endogenous protein)

[2] = molecular target: T2, VEGF-R (vascular endothelial growth factor receptor-2) (Rattus norvegicus, UniProt O08775); assay: VEGF-R Screening Assay; conditions: read-out: Kinase Assay (IC50 uM) VEGF-R
T2 construct: 6xHis (polyhistidine) (N)
Protocol: (§1) 70 µL of the kinase reaction mixture was dispensed into the well of a streptavidin coated FlashPlate™ (Cat. # SMP103, NEN, Boston, MA). Then 1 µL of test compound stock in 100% DMSO was added to the wells resulting in a final concentration of 1% DMSO in the reaction with a 100 µL final reaction volume. Next, soluble rat tyrosine kinase containing an N-terminal 6XHIS tag was diluted in 50 mM Tris-HCl pH=8.0, 0.1% BSA at a concentration of 5 ng per µL and 30 µL (150 ng enzyme per test well) was added to each well to initiate the reaction. The reaction was incubated for one hour at 30°C. At the end of the 1-hour incubation, the reaction was terminated by aspirating the reaction mixture from the plate and washing the wells twice with PBS containing 100 mM EDTA. The PLC1 biotinylated peptide substrate became immobilized on the Flashplate™ and the incorporation of ^33P-γ-ATP was measured by reading the plate on a scintillation counter. Inhibition of the enzymatic activity of the VEGF-R was measured by observing a reduced amount of ^33P-γ-ATP incorporated into the immobilized peptide. […]

CDK1:Cyclin-B = molecular target: T3, CDK1:Cyclin-B (Homo sapiens, UniProt P06493); assay: CDK1 Screening Assay; conditions: read-out: Kinase Assay (IC50 uM) CDK1
T3 construct: purchased New England Biolabs, Beverly, MA 6020; host or cells: insect cells
Protocol: as §1, with “100 µl” for “100 µL”, “Next, CDK1:Cyclin-B protein” for “Next, soluble rat tyrosine kinase containing an N-terminal 6XHIS tag”, “of 1” for “of 5”, “30 µl (30ng” for “30 µL (150 ng”, “The histone-H1” for “The PLC1”, “of CDK1” for “of the VEGF-R”

[3] = molecular target: T4, HER2 (human epidermal growth factor receptor-2) (Homo sapiens, UniProt P04626); assay: Kinase Selectivity Assay HER2
T4 construct: begins at amino acid 676 followed by the remainder of the HER2 cytoplasmic domain; polyhistidine (N)

[4] = Kinase Selectivity, Table 2, read-out: EGF-R IC50
[5] = read-out: Kinase Assay (IC50 uM) EGF-R
[6] = read-out: Kinase Assay (IC50 uM) HER2 Kinase

T4 sequence (P04626 676-1255 limits assumed): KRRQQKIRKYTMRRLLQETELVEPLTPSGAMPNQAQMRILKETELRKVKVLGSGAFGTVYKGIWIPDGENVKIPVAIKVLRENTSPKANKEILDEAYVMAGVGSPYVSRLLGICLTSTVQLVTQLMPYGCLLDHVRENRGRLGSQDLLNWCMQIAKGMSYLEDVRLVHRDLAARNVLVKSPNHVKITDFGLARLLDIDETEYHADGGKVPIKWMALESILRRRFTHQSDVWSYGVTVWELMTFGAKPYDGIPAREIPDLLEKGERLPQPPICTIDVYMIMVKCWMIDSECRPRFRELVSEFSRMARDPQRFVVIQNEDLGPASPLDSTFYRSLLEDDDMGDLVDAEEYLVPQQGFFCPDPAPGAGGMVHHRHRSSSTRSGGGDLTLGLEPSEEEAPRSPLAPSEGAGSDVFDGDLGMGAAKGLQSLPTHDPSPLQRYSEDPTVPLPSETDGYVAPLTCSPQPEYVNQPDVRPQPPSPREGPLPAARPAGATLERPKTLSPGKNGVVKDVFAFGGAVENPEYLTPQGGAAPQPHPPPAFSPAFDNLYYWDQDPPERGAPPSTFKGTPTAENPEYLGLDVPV
T2 sequence (O08775 786-1343): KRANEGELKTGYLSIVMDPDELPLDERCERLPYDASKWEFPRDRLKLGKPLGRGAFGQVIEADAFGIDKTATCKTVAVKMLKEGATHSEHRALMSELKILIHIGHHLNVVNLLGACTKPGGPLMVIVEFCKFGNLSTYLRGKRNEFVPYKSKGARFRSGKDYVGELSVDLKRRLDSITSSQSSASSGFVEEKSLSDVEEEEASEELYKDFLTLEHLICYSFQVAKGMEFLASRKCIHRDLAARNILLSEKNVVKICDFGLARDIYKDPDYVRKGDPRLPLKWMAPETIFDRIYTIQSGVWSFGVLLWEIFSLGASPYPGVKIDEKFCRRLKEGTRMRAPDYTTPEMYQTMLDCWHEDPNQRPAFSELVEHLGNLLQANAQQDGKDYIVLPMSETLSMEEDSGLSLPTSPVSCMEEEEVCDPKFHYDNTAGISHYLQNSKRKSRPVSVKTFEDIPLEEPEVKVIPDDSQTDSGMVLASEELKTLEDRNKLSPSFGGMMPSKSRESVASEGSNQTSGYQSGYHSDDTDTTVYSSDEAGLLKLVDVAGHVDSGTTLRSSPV
T3 sequence (P06493 whole entry): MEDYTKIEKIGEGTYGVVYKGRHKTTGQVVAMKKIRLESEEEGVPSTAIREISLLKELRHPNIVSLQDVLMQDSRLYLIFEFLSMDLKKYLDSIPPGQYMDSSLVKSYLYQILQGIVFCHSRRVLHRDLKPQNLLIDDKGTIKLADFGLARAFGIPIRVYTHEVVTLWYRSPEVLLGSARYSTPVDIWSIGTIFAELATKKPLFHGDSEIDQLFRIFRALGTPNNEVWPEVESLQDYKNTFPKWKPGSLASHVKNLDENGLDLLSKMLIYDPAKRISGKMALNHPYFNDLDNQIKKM
T3 sequence (P14635 whole entry partner): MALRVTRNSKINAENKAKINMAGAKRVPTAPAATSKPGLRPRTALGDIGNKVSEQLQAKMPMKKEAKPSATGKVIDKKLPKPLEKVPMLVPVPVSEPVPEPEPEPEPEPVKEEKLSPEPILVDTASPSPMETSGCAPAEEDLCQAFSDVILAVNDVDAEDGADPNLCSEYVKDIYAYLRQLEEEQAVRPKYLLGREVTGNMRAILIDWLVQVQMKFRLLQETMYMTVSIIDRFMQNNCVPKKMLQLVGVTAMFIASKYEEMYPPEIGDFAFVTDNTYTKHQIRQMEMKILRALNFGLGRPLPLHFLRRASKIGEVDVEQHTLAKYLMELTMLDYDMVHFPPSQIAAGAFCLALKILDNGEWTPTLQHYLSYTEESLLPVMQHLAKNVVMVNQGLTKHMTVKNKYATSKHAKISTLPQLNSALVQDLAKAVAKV
T1 sequence (P00533 25-1210): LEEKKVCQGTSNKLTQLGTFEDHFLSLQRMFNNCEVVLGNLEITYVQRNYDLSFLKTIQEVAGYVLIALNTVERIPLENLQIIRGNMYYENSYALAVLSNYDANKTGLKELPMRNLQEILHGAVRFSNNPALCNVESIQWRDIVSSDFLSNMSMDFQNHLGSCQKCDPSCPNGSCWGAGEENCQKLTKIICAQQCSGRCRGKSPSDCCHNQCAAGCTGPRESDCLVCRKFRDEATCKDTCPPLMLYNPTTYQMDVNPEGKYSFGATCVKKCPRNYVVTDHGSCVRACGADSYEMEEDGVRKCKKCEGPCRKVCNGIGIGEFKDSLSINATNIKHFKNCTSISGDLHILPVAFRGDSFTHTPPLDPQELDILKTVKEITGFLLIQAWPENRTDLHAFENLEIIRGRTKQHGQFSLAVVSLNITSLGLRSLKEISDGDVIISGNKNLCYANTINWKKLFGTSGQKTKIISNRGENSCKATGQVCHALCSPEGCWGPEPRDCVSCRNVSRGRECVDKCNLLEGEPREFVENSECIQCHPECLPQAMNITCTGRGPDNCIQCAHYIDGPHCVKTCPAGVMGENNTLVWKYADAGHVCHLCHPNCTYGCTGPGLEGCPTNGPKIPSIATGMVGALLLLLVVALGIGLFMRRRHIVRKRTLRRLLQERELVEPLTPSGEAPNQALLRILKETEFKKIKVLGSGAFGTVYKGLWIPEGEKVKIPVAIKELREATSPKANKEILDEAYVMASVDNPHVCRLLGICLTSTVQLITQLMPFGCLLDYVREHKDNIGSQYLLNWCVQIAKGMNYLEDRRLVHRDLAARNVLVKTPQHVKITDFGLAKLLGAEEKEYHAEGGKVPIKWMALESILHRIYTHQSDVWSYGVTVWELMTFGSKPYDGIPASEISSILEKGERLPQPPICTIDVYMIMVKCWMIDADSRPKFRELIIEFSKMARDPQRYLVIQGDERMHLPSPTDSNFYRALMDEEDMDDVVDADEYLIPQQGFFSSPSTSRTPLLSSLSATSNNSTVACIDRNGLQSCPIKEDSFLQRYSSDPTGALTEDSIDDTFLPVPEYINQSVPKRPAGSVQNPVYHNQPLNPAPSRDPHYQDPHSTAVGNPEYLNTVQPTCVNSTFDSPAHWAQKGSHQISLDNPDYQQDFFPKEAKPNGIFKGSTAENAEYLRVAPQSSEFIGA

Row | SMILES | IC50 [1, 5] [µM] | IC50 [2] [µM] | other results
1 | Nc1nc(Nc2ccc(S(N)(=O)=O)cc2)nn1C(=O)c1c(F)cccc1F [Cpd 1, 4-[[5-amino-1-(2,6-difluorobenzoyl)-1H-1,2,4-triazol-3-yl]amino]-benzenesulfonamide] | – | – | IC50 [1, 4]: > 100 µM
2 | Nc1nc(Nc2ccc(S(N)(=O)=O)cc2)nn1C(=O)c1cccs1 [Cpd 14, 4-[[5-amino-1-(2-thienylcarbonyl)-1H-1,2,4-triazol-3-yl]amino]-benzenesulfonamide] | – | – | IC50 [1, 4]: 1.92 µM
3 | Nc1nc(Nc2ccc(S(N)(=O)=O)cc2)nn1C(=O)c1sccc1F [Cpd 16, 4-[[5-amino-1-[(3-fluoro-2-thienyl)carbonyl]-1H-1,2,4-triazol-3-yl]amino]-benzenesulfonamide] | – | – | IC50 [1, 4]: > 100 µM
4 | Nc1nc(Nc2ccc(S(N)(=O)=O)cc2)nn1C(=O)c1sccc1Cl [Cpd 17, 4-[[5-amino-1-[(3-chloro-2-thienyl)carbonyl]-1H-1,2,4-triazol-3-yl]amino]-benzenesulfonamide] | – | – | IC50 [1, 4]: 4.13 µM
5 | Nc1nc(Nc2ccc(S(=O)(=O)N3CCCCC3)cc2)nn1C(=O)c1cccs1 [Cpd 23, N^3-[4-(1-piperidinylsulfonyl)phenyl]-1-(2-thienylcarbonyl)-1H-1,2,4-triazole-3,5-diamine] | – | – | IC50 [1, 4]: > 100 µM
6 | Nc1nc(Nc2ccc(S(N)(=O)=O)cc2)nn1C(=O)c1ccsc1 [Cpd 30, 4-[[5-amino-1-(3-thienylcarbonyl)-1H-1,2,4-triazol-3-yl]amino]-benzenesulfonamide] | – | – | IC50 [1, 4]: 9.6 µM
7 | CCc1ccc(C(=O)n2nc(Nc3ccc(S(N)(=O)=O)cc3)nc2N)s1 [Cpd 32, 4-[[5-amino-1-[(5-ethyl-2-thienyl)carbonyl]-1H 1,2,4-triazol-3-yl]amino]-benzenesulfonamide] | – | – | IC50 [1, 4]: > 100 µM
8 | Cc1nc(C)c(C(=O)n2nc(Nc3ccc(S(N)(=O)=O)cc3)nc2N)s1 [Cpd 34, 4-[[5-amino-1-[(2,4-dimethyl-5-thiazolyl)carbonyl]-1H-1,2,4-triazol-3-yl]amino]-benzenesulfonamide] | > 100 | 0.068 | –
9 | Nc1nc(Nc2ccc(S(N)(=O)=O)cc2)nn1C(=O)C1CCCC1 [Cpd 38, 4-[[5-amino-1-(cyclopentylcarbonyl)-1H-1,2,4-triazol-3-yl]amino]-benzenesulfonamide] | > 100 | 0.88 | IC50 (CDK1:Cyclin-B): 0.029 µM
10 | Nc1nc(Nc2ccc(S(N)(=O)=O)cc2)nn1C(=O)C1CCCCC1 [Cpd 39, 4-[[5-amino-1-(cyclohexylcarbonyl)-1H-1,2,4-triazol-3-yl]amino]-benzenesulfonamide] | > 100 | 0.334 | IC50 (CDK1:Cyclin-B): 0.012 µM
11 | CC(C)(C)c1ccc(C(=O)n2nc(Nc3ccc(S(N)(=O)=O)cc3)nc2N)s1 [Cpd 51, 4-[[5-amino-1-[[5-(1,1-dimethylethyl)-2-thienyl]carbonyl]-1H-1,2,4-triazol-3-yl]amino]-benzenesulfonamide] | 1.1 | – | –
12 | Nc1ccc(F)c(C(=O)n2nc(Nc3ccc(S(N)(=O)=O)cc3)nc2N)c1F [Cpd 55, 4-[[5-amino-1-(3-amino-2,6-difluorobenzoyl)-1H-1,2,4-triazol-3-yl]amino]-benzenesulfonamide] | 16.1 | 0.577 | –
13 | Cc1ccccc1C(=O)n1nc(Nc2ccc(S(N)(=O)=O)cc2)nc1N [Cpd 57, 4-[[5-amino-1-(2-methylbenzoyl)-1H-1,2,4-triazol-3-yl]amino]-benzenesulfonamide] | > 100 | 0.191 | –
14 | CC(O)c1ccc(F)c(C(=O)n2nc(Nc3ccc(S(N)(=O)=O)cc3)nc2N)c1F (stereo not shown) [Cpd 58, 4-[[5-amino-1-[2,6-difluoro-3-(1-hydroxyethyl)benzoyl]-1H-1,2,4-triazol-3-yl]amino]-benzenesulfonamide] | > 10 | – | –
15 | Nc1nc(Nc2ccc(S(N)(=O)=O)cc2)nn1C(=O)c1c(F)cccc1Cl [Cpd 70, 4-[[5-amino-1-(2-chloro-6-fluorobenzoyl)-1H-1,2,4-triazol-3-yl]amino]-benzenesulfonamide] | > 100 | 0.911 | –
16 | CN1CCN(c2ccc(Nc3nc(N)n(C(=O)c4c(F)cccc4F)n3)cc2)CC1 [Cpd 71, 1-(2,6-difluorobenzoyl)-N^3-[4-(4-methyl-1-piperazinyl)phenyl]-1H-1,2,4-triazole-3,5-diamine] | > 10 | – | –
17 | CNS(=O)(=O)c1ccc(Nc2nc(N)n(C(=O)c3sccc3C)n2)cc1 [Cpd 82, 4-[[5-amino-1-[(3-methyl-2-thienyl)carbonyl]-1H-1,2,4-triazol-3-yl]amino]-N-methyl-benzenesulfonamide] | > 100 | 0.022 | IC50 [3, 6]: 0.118 µM
18 | CNS(=O)(=O)c1ccc(Nc2nc(N)n(C(=O)c3sc(C)cc3C)n2)cc1 [Cpd 83, 4-[[5-amino-1-[(3,5-dimethyl-2-thienyl)carbonyl]-1H-1,2,4-triazol-3-yl]amino]-N-methyl-benzenesulfonamide] | > 100 | 0.04 | IC50 (CDK1:Cyclin-B): 0.008 µM
19 | CCc1ccc(C(=O)n2nc(Nc3ccc(S(=O)(=O)NC)cc3)nc2N)s1 [Cpd 84, 4-[[5-amino-1-[(5-ethyl-2-thienyl)carbonyl]-1H-1,2,4-triazol-3-yl]amino]-N-methyl-benzenesulfonamide] | > 10 | 0.043 | IC50 [3, 6]: 0.052 µM
20 | Cc1cc(C)c(C(=O)n2nc(Nc3ccc(-n4ccnc4)cc3)nc2N)s1 [Cpd 92, 1-[(3,5-diinethyl-2-thienyl)carbonyl]-N^3-[4-(1H-imidazol-1-yl)phenyl]-1H-1,2,4-triazole-3,5-diamine] | > 100 | – | –
21 | CCc1ccc(C(=O)n2nc(Nc3ccc(S(=O)(=O)NCCN(C)C)cc3)nc2N)s1 [Cpd 103, 4-[[5-amino-1-[(5-ethyl-2-thienyl)carbonyl]-1H-1,2,4-triazol-3-yl]amino]-N-[2-(dimethylamino)ethyl]-benzenesulfonamide] | > 10 | – | –
22 | Cc1ccsc1C(=O)n1nc(Nc2ccc(S(=O)(=O)NCCN(C)C)cc2)nc1N [Cpd 104, 4-[[5-amino-1-[(3-methyl-2-thienyl)carbonyl]-1H-1,2,4-triazol-3-yl]amino]-N-[2-(dimethylamino)ethyl]-benzenesulfonamide] | > 10 | 0.016 | IC50 [3, 6]: 0.202 µM
23 | CCc1ccc(C(=O)n2nc(Nc3ccc(NS(C)(=O)=O)cc3)nc2N)s1 [Cpd 110, N-[4-[[5-amino-1-[(5-ethyl-2-thienyl)carbonyl]-1H-1,2,4-triazol-3-yl]amino]phenyl]-methanesulfonamide] | > 10 | 0.014 | IC50 (CDK1:Cyclin-B): 0.022 µM
24 | Cc1ccsc1C(=O)n1nc(Nc2ccc(N3CCNC3=O)cc2)nc1N [Cpd 113, 1-[4-[[5-amino-1-[(3-methyl-2-thienyl)carbonyl]-1H-1,2,4-triazol-3-yl]amino]phenyl]-2-imidazolidinone] | > 10 | – | –
25 | Cc1ccsc1C(=O)n1nc(Nc2ccc(N3CCCS3(=O)=O)cc2)nc1N [Cpd 116, N^3-[4-(1,1-dioxido-2-isothiazolidinyl)phenyl]-1-[(3-methyl-2-thienyl)carbonyl]-1H-1,2,4-triazole-3,5-diamine] | > 100 | – | –
26 | Nc1nc(Nc2ccc(S(=O)(=O)Nc3ccccn3)cc2)nn1C(=O)c1c(F)cccc1F [Cpd 118, 4-[[5-amino-1-(2,6-difluorobenzoyl)-1H-1,2,4-triazol-3-yl]amino]-N-(2-pyridinyl)-benzenesulfonamide] | > 100 | – | –
27 | Cc1cc(C)c(C(=O)n2nc(Nc3ccc(S(=O)(=O)Nc4ccccn4)cc3)nc2N)s1 [Cpd 120, 4-[[5-amino-1-[(3,5-dimethyl-2-thienyl)carbonyl]-1H-1,2,4-triazol-3-yl]amino]-N-(2-pyridinyl)-benzenesulfonamide] | > 10 | – | IC50 ([3]; Table 1, read-out: HER2 IC50): 1 µM; IC50 [3, 6]: 1 µM
28 | Cc1ccc(F)c(C(=O)n2nc(N)nc2Nc2ccc(S(N)(=O)=O)cc2)c1F [Cpd 123, 4-[[3-amino-1-(2,6-difluoro-3-methylbenzoyl)-1H-1,2,4-triazol-5-yl]amino]-benzenesulfonamide] | > 100 | 5.52 | –
